Consider 9 compounds from doi:10.1101/2024.12.05.627101v1 (biorxiv, 2024).

Experiment [1] concerns the target T1, human mGlu5 (hmGlu5) (Homo sapiens, UniProt P41594). Kind of experiment: whole-cell [3H]methoxy-PEPy inhibition binding. Format: cell-based.
Experiment [2] addresses T1, human mGlu5 (hmGlu5). Kind of experiment: IP1 accumulation. Format: cell-based.
For experiment [3], the target named is T1, human mGlu5 (hmGlu5). Kind of experiment: cell-based. Set-up: species or system HEK293A. Conditions: HEK293-A, read-out: iCa2+ human mGlu5 Emax.
The target of experiment [4] is T1, human mGlu5 (hmGlu5). Put plainly: whole-cell [3H]methoxy-PEPy inhibition binding. Format: cell-based. The source holds these as a separate data set.
For experiment [5], the target named is T1, human mGlu5 (hmGlu5). Put plainly: IP1 accumulation. The class given is cell-based. This is another data set of the same source.
The target of experiment [6] is T1, human mGlu5 (hmGlu5). Put plainly: iCa2+ mobilisation. The class given is cell-based.
Experiment [7] addresses T1, human mGlu5 (hmGlu5). Kind of experiment: whole-cell saturation radioligand binding. The class given is cell-based.

T1 sequence (P41594 21-1180 isoform P41594-2): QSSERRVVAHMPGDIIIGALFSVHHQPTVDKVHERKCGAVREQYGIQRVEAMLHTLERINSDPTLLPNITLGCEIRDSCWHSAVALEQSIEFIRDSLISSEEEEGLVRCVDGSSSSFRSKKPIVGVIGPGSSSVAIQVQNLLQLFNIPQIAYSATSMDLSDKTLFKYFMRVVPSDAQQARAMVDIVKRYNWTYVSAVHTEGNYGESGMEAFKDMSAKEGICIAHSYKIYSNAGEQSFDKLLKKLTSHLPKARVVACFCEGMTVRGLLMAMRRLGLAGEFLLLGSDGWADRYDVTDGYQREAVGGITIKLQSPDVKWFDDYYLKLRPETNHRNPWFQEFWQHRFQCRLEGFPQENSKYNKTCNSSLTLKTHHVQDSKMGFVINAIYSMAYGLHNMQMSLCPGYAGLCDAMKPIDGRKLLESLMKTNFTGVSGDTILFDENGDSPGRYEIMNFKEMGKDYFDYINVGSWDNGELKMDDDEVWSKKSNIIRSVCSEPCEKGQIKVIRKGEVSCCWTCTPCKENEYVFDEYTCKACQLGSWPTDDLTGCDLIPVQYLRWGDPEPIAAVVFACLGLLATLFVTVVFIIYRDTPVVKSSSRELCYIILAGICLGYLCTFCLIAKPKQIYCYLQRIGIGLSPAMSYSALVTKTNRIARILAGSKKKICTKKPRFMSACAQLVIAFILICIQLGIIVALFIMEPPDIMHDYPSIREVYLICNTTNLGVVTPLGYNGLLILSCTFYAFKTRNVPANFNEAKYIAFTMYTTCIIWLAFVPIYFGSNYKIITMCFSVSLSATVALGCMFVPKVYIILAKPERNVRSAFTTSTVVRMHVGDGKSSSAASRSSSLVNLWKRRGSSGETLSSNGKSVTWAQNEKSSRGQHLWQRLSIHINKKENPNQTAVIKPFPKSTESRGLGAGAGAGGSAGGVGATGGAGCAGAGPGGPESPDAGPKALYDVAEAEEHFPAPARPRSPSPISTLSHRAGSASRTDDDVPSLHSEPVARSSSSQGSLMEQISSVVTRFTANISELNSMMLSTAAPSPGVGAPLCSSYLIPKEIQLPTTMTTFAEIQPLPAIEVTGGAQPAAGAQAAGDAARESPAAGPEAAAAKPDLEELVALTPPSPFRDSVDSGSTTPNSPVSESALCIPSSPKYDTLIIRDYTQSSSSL

At human mGlu5 (hmGlu5) [1], `CN1CC(=O)N=C1NC(=O)Nc1cccc(Cl)c1` [fenobam, N-(3-chlorophenyl)-3-[(2e)-1-methyl-4-oxoimidazo-lidin-2-ylidene]urea] gave a Kd of 81.3 nM. The compound also had an IC50 against human mGlu5 (hmGlu5) [2] of 55 nM.
At human mGlu5 (hmGlu5) [1], `N#Cc1cc(F)cc(C(=O)Nc2cccc(Cl)c2F)c1` [VU0366248, N-(3-chloro-2-fluorophenyl)-3-cyano-5-fluorobenzamide] gave a Kd of 224 nM. This compound also gave a half-inhibitory concentration (IC50) against human mGlu5 (hmGlu5) [2] of 115 nM.
Regarding `N[C@@H](CCC(=O)O)C(=O)O` [glutamate], on human mGlu5 (hmGlu5) [3], the Emax is 103 ± 3.9%.
Regarding `CCCCOc1ccc(C(=O)Nc2ccc(F)cc2F)cc1` [VU0357121, 4-butoxy-N-(2,4-difluorophenyl)benzamide], at human mGlu5 (hmGlu5) [1], the Kd was 537 nM.
As to `O=C(c1ccc(F)cc1)N1CCc2nc(COc3ccccc3)oc2C1` [VU0409551, (4-fluorophenyl)(2-(phenoxymethyl)-6,7-dihydrooxazolo[5,4-c]pyridin-5(4H)-yl)methanone], the Ki at human mGlu5 (hmGlu5) [4] was 1410 nM. At human mGlu5 (hmGlu5) [5], this compound had a concentration for a half-maximal effect (EC50) of 661 nM.
Consider `C[C@@H](NC(=O)c1ccc(C#Cc2cccc(F)c2)cn1)C(C)(C)O` [VU0424465, (R)-5-((3-fluorophenyl)ethynyl)-N-(3-hydroxy-3-methylbutan-2-yl)picolinamide], for which the EC50 at human mGlu5 (hmGlu5) [6] is 275 nM. On human mGlu5 (hmGlu5) [1], this compound gave a Kd of 35.5 nM. The maximal effect (Emax) on human mGlu5 (hmGlu5) [3] was determined as 69.5 ± 4.5%.
At human mGlu5 (hmGlu5) [4], `O=C(COCc1ccc(F)cc1)N1CCN(c2ccc(F)cc2F)CC1` [DPFE, 1-(4-(2,4-difluorophenyl)piperazin-1-yl)-2-((4-fluorobenzyl)oxy)ethanone] showed a Ki of 7410 nM.
On human mGlu5 (hmGlu5) [6], `N[C@H](C(=O)O)c1cc(O)cc(O)c1` [DHPG, (S)-3,5-dihydroxyphenylglycine] gave an EC50 of 1100 nM. For the same compound, the Emax on human mGlu5 (hmGlu5) [3] came out at 80.3 ± 2.5%.
Take `COc1cncc(C#Cc2ccccn2)c1` [[3H]methoxy-PEPy]: at human mGlu5 (hmGlu5) [7], the Kd is 4.57 nM.
